In US12543736B2, “Herbicidal compositions comprising mesotrione” (BASF SE, priority 2024, dated 2026):

Columns and labels:
Commelina benghalensis = assay: Example 4 post-emergence application A-1, B and C-19, COMBE; assay type: in vivo; conditions: growth stage 13, 21 DAT, g ai/ha: A-1 1, B 50, C-19 30
Method: (§1) In the examples below, using the method of S. R. Colby (1967) “Calculating synergistic and antagonistic responses of herbicide combinations”, Weeds 15, p. 22ff., the value E, which is expected if the activity of the individual active compounds is only additive, was calculated:
(§2) [formula] • where • X=percent activity using active herbicide A at an application rate a; • Y=percent activity using active herbicide B (e.g. mesotrione) at an application rate b; • E=expected activity (in %) by A+B at application rates a+b.
(§3) If the value found experimentally is higher than the value E calculated according to Colby, a synergistic effect is present.
(§4) Evaluation was carried out using a scale from 0 to 100. 100 means no emergence of the plants, or complete destruction of at least the above-ground parts, and 0 means no damage or normal course of growth. A good herbicidal activity is given at values of at least 70, and very good herbicidal activity is given at values of at least 85.
(§5) Post-Emergence Application of Herbicide A-1 (A-1), Mesotrione (B) and Pyroxasulfone (C-19)
(§6) Herbicide A-1 (342 g/l), mesotrione (100 g/l) and pyroxasulfone (500 g/l) were, together with addition of 0.5 v/v % MSO (methylated sed oil) as adjuvant, formulated in water as distribution medium (water volume 200 l/ha) and sprayed with commercial flat fan nozzles.

Zea mays = assay: Example 4 post-emergence application A-1, B and C-19, ZEAMX; assay type: in vivo; conditions: growth stage 12, 21 DAT, g ai/ha: A-1 2, B 50, C-19 30
Method: as §1, §2, §3, §4, §5, §6

## Cn1nc(C(F)(F)F)c(CS(=O)(=O)C2=NOC(C)(C)C2)c1OC(F)F [C-19, pyroxasulfone]
Commelina benghalensis
  % herbicidal activity: 15%
Zea mays
  % herbicidal activity: 0%
